In the assay the test system is prothrombin time (PT) of control plasma NKP. The experiment in a line: 20 μL and 5 μL PT methods with reagent P161 at various added CaCl2, NKP + 500 μg/L apixaban. The format is biochemical. How it is done: With each reagent three samples were analyzed by the two PT methods of the anticoagulant assay, the 20 μL-method and the 5 μL-method. Two of the samples were reference samples, the control plasmas NKP and ZAP, with established INR values of 1.00 and 2.50, respectively.

Experimental findings from US10613104B2, “Assay to determine anticoagulants in blood or blood plasma” (ZAFENA AB, priority 2014, dated 2020) are described below.

SMILES strings stand for the structures.

Regarding `COc1ccc(-n2nc(C(N)=O)c3c2C(=O)N(c2ccc(N4CCCCC4=O)cc2)CC3)cc1` [apixaban], the “5 uL-method NKP + 500 INR5c” value (reagent P161, added Ca2+ 4 mM) came out at 1.18 and the “5 uL-method NKP + 500 INR5c” value (reagent P161, added Ca2+ 32 mM) came out at 1.49. Moreover, the “20 uL-method NKP + 500 INR20c” value (reagent P161, added Ca2+ 4 mM) was 1.83; the “20 uL-method NKP + 500 INR20c” value (reagent P161, added Ca2+ 8 mM) is 2.15; the “20 uL-method NKP + 500 INR20c” value (reagent P161, added Ca2+ 16 mM) turned out to be 3.15; the “20 uL-method NKP + 500 INR20c” value (reagent P161, added Ca2+ 24 mM) is on record as 3.30; the “20 uL-method NKP + 500 INR20c” value (reagent P161, added Ca2+ 32 mM) is 3.38.
